Experiments:
[1] = system: healthy elderly subjects; conditions: cited from earlier work
[2] = Clinical trial in patients with stable schizophrenia: PK and safety; format: in vivo, human; conditions: total oral daily dosages up to 60 mg per day
[3] = Two Phase 1 studies in healthy adults aged 18 to 79: safety, PK, PD; format: in vivo, human
Source text: The 15-mg Compound I QD dose was selected based on safety, tolerability, PK, and PD data from repeated dosing at this level in two Phase 1 studies conducted in healthy adults aged 18 to 79 years. […] Across the Phase 1 studies, no safety concerns were identified. […] No impact on cognitive performance measures was observed.

[4] = system: participants diagnosed with MELAS; assay: MELAS study: inflammatory biomarkers in plasma (InflammationMAP panel); format: in vivo, human
Procedure: Plasma and serum samples for biomarkers were collected from each participant. These biomarkers tested the target engagement of Compound I as well as the impact of the compound on disease. Plasma or serum samples were analyzed for concentrations of growth differentiation factor 15 (GDF-15), lactate, pyruvate, alanine, neurofilament light chain (NFL), vascular cell adhesion molecule 1, interleukin-1beta, asymmetric dimethylarginine (ADMA), L arginine, and other biomarkers relevant to the pathophysiology of mitochondrial disease, as well as their response to Compound I.
This change was observed across all brain regions of interest. Effect size throughout this disclosure is defined as the means change from baseline in a particular parameter that is being measured, divided by the standard deviation. Effect sizes closer to 1 or −1 (positive or negative dependent on the direction of movement for the specific parameter, i.e. +0.8 to +1.0 or −0.8 to −1.0) are usually considered large. Effect sizes between 0.5 and 0.8 or −0.5 and −0.8 (positive or negative dependent on the direction of movement for the specific parameter) are usually considered moderate. Effect sizes closer to below 0.5 or −0.5 (positive or negative dependent on the direction of movement for the specific parameter) are usually considered small.
26 out of the 40 (65%) inflammatory biomarkers assessed in plasma as part of the InflammationMAP® panel were reduced with effect sizes less or equal than −0.3. Only 3 of the 40 (7.5%) inflammatory biomarkers assessed in plasma increased with an effect size equal or more than 0.3. The changes in concentrations as well as the effect sizes for inflammatory markers measured in plasma are summarized in the 3 tables below (Table 1: large effect size; Table 2: moderate effect size and Table 3: small effect size). The concentration values in Tables 1-3 were measured in the standard units for each of these laboratory measures as known in the art. Many of these biomarkers tended to increase again back to baseline levels after treatment with Compound I was stopped, supporting a drug effect.

[5] = system: healthy participants; assay: Phase I trial NCT03856827, healthy participants aged 18 to 62: EEG; format: in vivo, human
Procedure: Electroencephalography (EEG) is a technique that measures electrical activity in the brain (brain electrophysiology) by using electrodes places on the scalp. EEG-power spectral signals may be analyzed at different frequencies or frequency bands. They were analyzed at the following frequency bands in two prior phase 1 clinical trials with Compound I described below: Delta-1-4 Hz (typically associated with sleep), Theta-4-7.5 Hz (associated with waking/falling asleep, some association with cognition), Alpha-8-12 Hz (associated with passive wakefulness, and with cognitive processing), Beta-12-25 Hz (associated with alertness and concentration) and Gamma-25-45 Hz (associated with higher cognitive function). qEEG stands for quantitative electroencephalography. […]
During EEG-ERP experiments, several key waveforms may be evaluated following a stimulus: N200 (associated with stimulus identification and distinction), P300 (associated with selective attention, information processing and cognitive speed/capacity), P200 (associated with aspects of selective attention or stimulus encoding), P50 (assciated with sensory gating, or the reduced neurophysiological response to redundant stimuli), and N100 (associated with early perceptal processes). […]

[6] = two weeks, 15 mg QD, compared with placebo
[7] = healthy elderly, 15 mg QD, after 14 days
[8] = healthy participants, 15 mg QD for up to 15 days

Fc1ccccc1Cc1nc(-c2nc(C(F)(F)F)n[nH]2)cn2ccnc12 [Compound I, zagociguat]
N200 auditory event-related potential (ERP) latencies ([1]; healthy elderly, 15 mg QD): shortening | gamma power (EEG) ([1]; healthy elderly, 15 mg QD): trend increases in gamma power | posterior alpha power (EEG) ([1]; healthy elderly, 15 mg QD): increases in posterior alpha power | neuroimaging by ASL and fMRI BOLD, MRS measurements, NeuroCart CNS function assessments ([1]; healthy elderly): No changes were observed | CSF concentration of Alpha 2 macroglobulin (A2M) [1, 6]: potentially important reductions | CSF concentration of complement C3 (C3) [1, 6]: potentially important reductions | PK, dose proportionality [2]: proportional PK | safety and tolerability [2]: safe and well tolerated | PK data, dose dependence ([3]; Phase 1 studies): linear and dose-dependent | PK data, effect of food ([3]; Phase 1 studies): not impacted by food | cognitive performance measures [3, 7]: No impact | neurophysiological parameters by EEG [3, 7]: modest impacts | SAEs [3, 8]: no SAEs reported | discontinuations due to AEs [3, 8]: no discontinuations due to AEs | severity of AEs [3, 8]: mild or moderate | Alpha-1-Antitrypsin, Effect size ([4]; 15 mg QD, day 29 vs baseline): −0.4 | Alpha-1-Antitrypsin, change in concentration, Mean ([4]; 15 mg QD, day 29 vs baseline): −0.2 | Alpha-2-Macroglobulin, Effect size ([4]; 15 mg QD, day 29 vs baseline): −0.3 | Alpha-2-Macroglobulin, change in concentration, Mean ([4]; 15 mg QD, day 29 vs baseline): −0.2 | Beta-2-Microglobulin, Effect size ([4]; 15 mg QD, day 29 vs baseline): −1.0 | Beta-2-Microglobulin, change in concentration, Mean ([4]; 15 mg QD, day 29 vs baseline): −0.5 | Brain-Derived Neurotrophic Factor, Effect size ([4]; 15 mg QD, day 29 vs baseline): −0.5 | Brain-Derived Neurotrophic Factor, change in concentration, Mean ([4]; 15 mg QD, day 29 vs baseline): −2.1 | C-Reactive Protein, Effect size ([4]; 15 mg QD, day 29 vs baseline): −0.6 | C-Reactive Protein, change in concentration, Mean ([4]; 15 mg QD, day 29 vs baseline): −3.4 | EN-RAGE, Effect size ([4]; 15 mg QD, day 29 vs baseline): −0.4 | EN-RAGE, change in concentration, Mean ([4]; 15 mg QD, day 29 vs baseline): −28.4 | Eotaxin-1, Effect size ([4]; 15 mg QD, day 29 vs baseline): −0.4 | Eotaxin-1, change in concentration, Mean ([4]; 15 mg QD, day 29 vs baseline): −10.1 | Factor VII, Effect size ([4]; 15 mg QD, day 29 vs baseline): −0.4 | Factor VII, change in concentration, Mean ([4]; 15 mg QD, day 29 vs baseline): −87.4 | Ferritin, Effect size ([4]; 15 mg QD, day 29 vs baseline): −0.6 | Ferritin, change in concentration, Mean ([4]; 15 mg QD, day 29 vs baseline): −21.4 | Fibrinogen, Effect size ([4]; 15 mg QD, day 29 vs baseline): −0.4 | Fibrinogen, change in concentration, Mean ([4]; 15 mg QD, day 29 vs baseline): −1.4 | Granulocyte-Macrophage Colony-Stimulating Factor, Effect size ([4]; 15 mg QD, day 29 vs baseline): −0.4 | Granulocyte-Macrophage Colony-Stimulating Factor, change in concentration, Mean ([4]; 15 mg QD, day 29 vs baseline): −13.6 | Immunoglobulin A, Effect size ([4]; 15 mg QD, day 29 vs baseline): −0.5 | Immunoglobulin A, change in concentration, Mean ([4]; 15 mg QD, day 29 vs baseline): −0.4 | Immunoglobulin M, Effect size ([4]; 15 mg QD, day 29 vs baseline): −0.6 | Immunoglobulin M, change in concentration, Mean ([4]; 15 mg QD, day 29 vs baseline): −0.4 | Intercellular Adhesion Molecule 1, Effect size ([4]; 15 mg QD, day 29 vs baseline): −0.3 | Intercellular Adhesion Molecule 1, change in concentration, Mean ([4]; 15 mg QD, day 29 vs baseline): −12.1 | Interleukin-10 (IL-10), Effect size ([4]; 15 mg QD, day 29 vs baseline): 0.4 | Interleukin-10 (IL-10), change in concentration, Mean ([4]; 15 mg QD, day 29 vs baseline): 0.3 | Interleukin-17 (IL-17), Effect size ([4]; 15 mg QD, day 29 vs baseline): 0.5 | Interleukin-17 (IL-17), change in concentration, Mean ([4]; 15 mg QD, day 29 vs baseline): 0.03 | Interleukin-18, Effect size ([4]; 15 mg QD, day 29 vs baseline): −0.4 | Interleukin-18, change in concentration, Mean ([4]; 15 mg QD, day 29 vs baseline): −25.6 | Matrix Metalloproteinase-9 (MMP-9), Effect size ([4]; 15 mg QD, day 29 vs baseline): 0.4 | Matrix Metalloproteinase-9 (MMP-9), change in concentration, Mean ([4]; 15 mg QD, day 29 vs baseline): 37.3 | Myoglobin, Effect size ([4]; 15 mg QD, day 29 vs baseline): −0.4 | Myoglobin, change in concentration, Mean ([4]; 15 mg QD, day 29 vs baseline): −32.5 | Plasminogen Activator Inhibitor 1, Effect size ([4]; 15 mg QD, day 29 vs baseline): −0.4 | Plasminogen Activator Inhibitor 1, change in concentration, Mean ([4]; 15 mg QD, day 29 vs baseline): −11.6 | Pulmonary and Activation-Regulated Chemokine, Effect size ([4]; 15 mg QD, day 29 vs baseline): −0.5 | Pulmonary and Activation-Regulated Chemokine, change in concentration, Mean ([4]; 15 mg QD, day 29 vs baseline): −15.3 | Serum Amyloid P-Component, Effect size ([4]; 15 mg QD, day 29 vs baseline): −0.9 | Serum Amyloid P-Component, change in concentration, Mean ([4]; 15 mg QD, day 29 vs baseline): −5.0 | T-Cell-Specific Protein RANTES, Effect size ([4]; 15 mg QD, day 29 vs baseline): −0.5 | T-Cell-Specific Protein RANTES, change in concentration, Mean ([4]; 15 mg QD, day 29 vs baseline): −7.2 | Thyroxine-Binding Globulin, Effect size ([4]; 15 mg QD, day 29 vs baseline): −0.7 | Thyroxine-Binding Globulin, change in concentration, Mean ([4]; 15 mg QD, day 29 vs baseline): −8.4 | Tumor necrosis factor receptor 2, Effect size ([4]; 15 mg QD, day 29 vs baseline): −0.7 | Tumor necrosis factor receptor 2, change in concentration, Mean ([4]; 15 mg QD, day 29 vs baseline): −1.8 | Vascular Cell Adhesion Molecule-1, Effect size ([4]; 15 mg QD, day 29 vs baseline): −0.6 | Vascular Cell Adhesion Molecule-1, change in concentration, Mean ([4]; 15 mg QD, day 29 vs baseline): −98.3 | Vascular Endothelial Growth Factor, Effect size ([4]; 15 mg QD, day 29 vs baseline): −0.3 | Vascular Endothelial Growth Factor, change in concentration, Mean ([4]; 15 mg QD, day 29 vs baseline): −7.0 | Vitamin D-Binding Protein, Effect size ([4]; 15 mg QD, day 29 vs baseline): −0.5 | Vitamin D-Binding Protein, change in concentration, Mean ([4]; 15 mg QD, day 29 vs baseline): −26.5 | von Willebrand Factor, Effect size ([4]; 15 mg QD, day 29 vs baseline): −0.4 | von Willebrand Factor, change in concentration, Mean ([4]; 15 mg QD, day 29 vs baseline): −123.4 | inflammatory biomarkers increased with an effect size equal or more than 0.3 (3 of the 40) ([4]; 40 biomarkers assessed): 7.5% | inflammatory biomarkers reduced with effect sizes less or equal than −0.3 (26 out of the 40) ([4]; 40 biomarkers assessed): 65% | ERP P300 amplitude ([5]; QD dosing, healthy participants aged 18 to 62): increase in amplitude with increasing dose level | alpha power ([5]; day 14, all dosage levels tested, compared to placebo): Improvements in alpha power

Source: patent US20250367191A1, “TREATMENT OF MITOCHONDRIAL DISEASES WITH A CNS-PENETRANT SGC STIMULATOR ZAGOCIGUAT” (Tisento Therapeutics Inc., priority 2022, published 2025)
